Reference: US20180028543A1, “HYPOLIPIDEMIC COMPOSITION AND USE THEREOF” (priority 2014, published 2018)

Assays:
hyperlipidemia rats [1] = assay: Effect on liver function (serum ALT, AST) of high-fat feed rats; assay type: in vivo, SD rats; settings: positive drug 1.5 mg/Kg-d, 4 weeks, X ± S, n = 10
From the text: 1. Experimental materials: 150 healthy SD male and female rats in clean grade, with body weight of (150.2±8.9) g.
2. Feed: general feed, high-fat feed formula: 72.7% of basic feed, 2% of cholesterol, 5% of egg yolk powder, 10% of lard, 0.2% of propylthiouracil, 10% of sucrose and 0.1% of sodium cholate.
3. Grouping and administration of animals: the purchased experimental rats were adaptively fed for 1 week in a lab, original numbers were assigned according to the weighing order, and the rats were randomly divided into a blank control group, a model control group, a pharmaceutical composition (respectively prepared as in Examples 3, 6, 8 and 10, and added with 50 ml of water per 10 g to be dissolved to obtain a solution) low-dose group (5 ml/kg·d), a middle-dose group (10 ml/kg-d), a high-dose group (15 ml/kg·d), a positive drug (simvastatin) control group (1.5 mg/kg, volume: 10 ml/kg) by looking up a random number table, and there were 10 rats in each group. […]
4. […] The rats were anesthetized with 3% pentobarbital sodium, blood was collected from the abdominal aorta, serum was centrifugally separated, and the serum total cholesterol (TC), triglyceride (TG), high-density lipoprotein cholesterol (HDL-C), low-density lipoprotein cholesterol (LDL-C), alanine aminotransferase (ALT) and aspartate aminotransferase (AST) values were measured. […]

hyperlipidemia rats [2] = assay: Hypolipidemic animal experiment: blood lipid levels in high-fat feed rats; assay type: in vivo, SD rats; settings: serum, positive drug 1.5 mg/kg intragastric, 4 weeks, X ± S, n = 10
Experimental: 3. […] From the day of experiment, the blank control group and the model control group were intragastrically administered with normal saline (volume: 10 ml/kg), the administration group was intragastrically administered with corresponding drugs once a day, the body weight was weighed once a week, and the dosage was adjusted according to the body weight. The blank control group was fed with the normal feed, the other groups was fed with high-fat feed. During the experiment, free feeding, free drinking, continuous molding and drug administration for prevention were carried out for 4 weeks.
4. Observation indexes: after the last administration, the rats fasted for 12 h without fasting water. The rats were anesthetized with 3% pentobarbital sodium, blood was collected from the abdominal aorta, serum was centrifugally separated, and the serum total cholesterol (TC), triglyceride (TG), high-density lipoprotein cholesterol (HDL-C), low-density lipoprotein cholesterol (LDL-C), alanine aminotransferase (ALT) and aspartate aminotransferase (AST) values were measured.

In the case of `CCC(C)(C)C(=O)O[C@H]1C[C@@H](C)C=C2C=C[C@H](C)[C@H](CC[C@@H]3C[C@@H](O)CC(=O)O3)[C@H]21` [Positive drug, simvastatin], the ALT (hyperlipidemia rats [1]) is reported as 45.85 ± 5.21 U/L, the AST (hyperlipidemia rats [1]) is reported as 22.32 ± 7.56 U/L and the HDL-C (hyperlipidemia rats [2]) is reported as 1.23 ± 0.17 mmol/L. It also gave an LDL-C (hyperlipidemia rats [2]) of 1.68 ± 1.91 mmol/L, a TC (hyperlipidemia rats [2]) of 8.42 ± 4.79 mmol/L and a TG (hyperlipidemia rats [2]) of 0.49 ± 0.18 mmol/L.
